Test results from US5099015A, “Trifluoromethyl 1-carba(1-dethia)cephems” (Eli Lilly and Company, priority 1991, dated 1992).
Converted amounts (≈) assume the structure as drawn. Where two headings read alike, the source gives them in different places.

Columns and labels:
Experiment in all cases: Agar dilution antibacterial test (MIC)
Type in all cases: cell-based
Citro CF17 = system: Citro CF17
Procedure: (§1) Fresh overnight cultures of test bacteria were diluted to approximately 1x(10)4 cells/microliter and applied in one microliter volumes to the surfaces of the agar plates. The innoculated plates were incubated overnight at 35° C. in ambient air. Minimum inhibitory concentration (mic) endpoints were recorded as the lowest antibiotic concentrations in micrograms per milliliter that inhibited the development of visible growth on the plates. The following summarizes the results of such tests with the compounds of the examples listed above.

[1] = system: Enterobacter aerogenes C32
Procedure: as §1

[2] = system: Enterobacter aerogenes EB17
Procedure: as §1

[3] = system: Enterobacter cloacae 265A
Procedure: as §1

Enterobacter cloacae EB5 = system: Enterobacter cloacae EB5
Procedure: as §1

[4] = system: Enterococcus faecalis 2041
Procedure: as §1

Enterococcus faecium X66 = system: Enterococcus faecium X66
Procedure: as §1

Escherichia coli EC14 = system: Escherichia coli EC14
Procedure: as §1

Escherichia coli N10 = system: Escherichia coli N10
Procedure: as §1

Escherichia coli TEM = system: Escherichia coli TEM
Procedure: as §1

[5] = system: Haemophilus influenzae 76; conditions: read-out: MIC
Procedure: as §1

[6] = system: Haemophilus influenzae C.L.; conditions: read-out: MIC
Procedure: as §1

[7] = system: Klebsiella pneumoniae KAE
Procedure: as §1

[8] = system: Klebsiella pneumoniae X26
Procedure: as §1

[9] = system: Klebsiella pneumoniae X68
Procedure: as §1

Morg morg PR15 = system: Morg morg PR15
Procedure: as §1

Proteus incon PR33 = system: Proteus incon PR33
Procedure: as §1

Proteus rett C24 = system: Proteus rett C24
Procedure: as §1

Salmonella 1335 = system: Salmonella 1335
Procedure: as §1

Salmonella X514 = system: Salmonella X514
Procedure: as §1

Serratia SE3 = system: Serratia SE3
Procedure: as §1

Serratia X99 = system: Serratia X99
Procedure: as §1

[10] = system: Staphylococcus aureus NRRL X1.1
Procedure: as §1

[11] = system: Staphylococcus aureus S13E
Procedure: as §1

[12] = system: Staphylococcus aureus V41
Procedure: as §1

[13] = system: Staphylococcus aureus X400
Procedure: as §1

[14] = system: Staphylococcus epidermidis 222
Procedure: as §1

[15] = system: Staphylococcus epidermidis EPI270
Procedure: as §1

[16] = system: Staphylococcus pneumoniae Park 1
Procedure: as §1

[17] = system: Staphylococcus pyogenes C203; conditions: read-out: MIC
Procedure: as §1

Acom AC12 = system: Acom AC12
Procedure: as §1

Shig sonn. N9 = system: Shig sonn. N9
Procedure: as §1

[18] = Klebsiella aerogenes, read-out: MIC

N[C@@H](C(=O)N[C@@H]1C(=O)N2C(C(=O)O)=C(C(F)(F)F)CC[C@H]12)c1cccc(Br)c1 [Compound 7] showed an MIC (Citro CF17; read-out: MIC) of 32 µg/mL (≈ 69.2 µM), an MIC [1, 18] of 16 µg/mL (≈ 34.6 µM) and an MIC [2, 18] of 32 µg/mL (≈ 69.2 µM). It also gave an MIC ([3]; read-out: MIC) of 64 µg/mL (≈ 138 µM), an MIC (Enterobacter cloacae EB5; read-out: MIC) of 64 µg/mL (≈ 138 µM) and an MIC ([4]; read-out: MIC) of 8 µg/mL (≈ 17.3 µM). It also gave an MIC (Enterococcus faecium X66; read-out: MIC) of 16 µg/mL (≈ 34.6 µM), an MIC (Escherichia coli EC14; read-out: MIC) of 4 µg/mL (≈ 8.65 µM) and an MIC (Escherichia coli N10; read-out: MIC) of 8 µg/mL (≈ 17.3 µM). The MIC (Escherichia coli TEM; read-out: MIC) was 4 µg/mL (≈ 8.65 µM), the MIC [5] was 1 µg/mL (≈ 2.16 µM) and the MIC [6] was 0.5 µg/mL (≈ 1.08 µM). The MIC ([7]; read-out: MIC) was 16 µg/mL (≈ 34.6 µM), the MIC ([8]; read-out: MIC) was 0.25 µg/mL (≈ 0.541 µM) and the MIC ([9]; read-out: MIC) was 4 µg/mL (≈ 8.65 µM). The MIC (Morg morg PR15; read-out: MIC) was 16 µg/mL (≈ 34.6 µM), the MIC (Proteus incon PR33; read-out: MIC) was 8 µg/mL (≈ 17.3 µM) and the MIC (Proteus rett C24) was 128 µg/mL (≈ 277 µM). It also gave an MIC (Salmonella 1335; read-out: MIC) of 16 µg/mL (≈ 34.6 µM), an MIC (Salmonella X514; read-out: MIC) of 4 µg/mL (≈ 8.65 µM) and an MIC (Serratia SE3) greater than 128 µg/mL. It also gave an MIC (Serratia X99; read-out: MIC) of 64 µg/mL (≈ 138 µM), an MIC ([10]; NRRLX1.1, read-out: MIC) of 1 µg/mL (≈ 2.16 µM) and an MIC [11] of 8 µg/mL (≈ 17.3 µM). It also gave an MIC ([12]; read-out: MIC) of 4 µg/mL (≈ 8.65 µM), an MIC ([13]; read-out: MIC) of 16 µg/mL (≈ 34.6 µM) and an MIC ([14]; read-out: MIC) of 1 µg/mL (≈ 2.16 µM). It also gave an MIC ([15]; read-out: MIC) of 1 µg/mL (≈ 2.16 µM), an MIC ([16]; PARK1, read-out: MIC) of 0.125 µg/mL (≈ 0.27 µM) and an MIC [17] of 0.125 µg/mL (≈ 0.27 µM).

For Nc1nc(C(=NO)C(=O)N[C@@H]2C(=O)N3C(C(=O)O)=C(C(F)(F)F)CC[C@H]23)cs1 [Compound 5], the MIC (Acom AC12) was 2 µg/mL (≈ 4.77 µM), the MIC (Citro CF17) was 16 µg/mL (≈ 38.2 µM) and the MIC [1] was “.25 µg/mL”. The MIC [2] was “.06 µg/mL”, the MIC [3] was 16 µg/mL (≈ 38.2 µM) and the MIC (Enterobacter cloacae EB5) was “.125 µg/mL”. For the same compound, the MIC [4] was 1 µg/mL (≈ 2.38 µM), the MIC (Enterococcus faecium X66) was 8 µg/mL (≈ 19.1 µM) and the MIC (Escherichia coli EC14) was “.03 µg/mL”. For the same compound, the MIC (Escherichia coli N10) was “.125 µg/mL”, the MIC (Escherichia coli TEM) was “.03 µg/mL” and the MIC [7] was “.06 µg/mL”. The MIC [8] was “.015 µg/mL”, the MIC [9] was “.06 µg/mL” and the MIC (Morg morg PR15) was 2 µg/mL (≈ 4.77 µM). For the same compound, the MIC (Proteus incon PR33) was “.25 µg/mL”, the MIC (Proteus rett C24; Proteus rett C24) was “.125 µg/mL” and the MIC (Salmonella 1335) was “.06 µg/mL”. The MIC (Salmonella X514) was “.015 µg/mL”, the MIC (Serratia SE3) was 8 µg/mL (≈ 19.1 µM) and the MIC (Serratia X99) was “.5 µg/mL”. For the same compound, the MIC (Shig sonn. N9) was “.06 µg/mL”, the MIC [10] was 1 µg/mL (≈ 2.38 µM) and the MIC [11] was 4 µg/mL (≈ 9.54 µM). For the same compound, the MIC [12] was 2 µg/mL (≈ 4.77 µM), the MIC [13] was 8 µg/mL (≈ 19.1 µM) and the MIC [14] was 1 µg/mL (≈ 2.38 µM). For the same compound, the MIC [15] was 4 µg/mL (≈ 9.54 µM) and the MIC [16] was “.015 µg/mL”.

Compound N[C@@H](C(=O)N[C@@H]1C(=O)N2C(C(=O)O)=C(C(F)(F)F)CC[C@H]12)c1ccccc1 [Compound 1, 7β-[D-α-(amino)phenylacetylamino]-3-trifluoromethyl-1-carba-(1-dethia)-3-cephem-4-carboxyl ic acid] has an MIC (Citro CF17; read-out: MIC) of 8 µg/mL (≈ 20.9 µM), an MIC [1, 18] of 4 µg/mL (≈ 10.4 µM) and an MIC [2, 18] of 4 µg/mL (≈ 10.4 µM). For the same compound, the MIC ([3]; read-out: MIC) was 16 µg/mL (≈ 41.7 µM), the MIC (Enterobacter cloacae EB5; read-out: MIC) was 8 µg/mL (≈ 20.9 µM) and the MIC ([4]; read-out: MIC) was 16 µg/mL (≈ 41.7 µM). It also gave an MIC (Enterococcus faecium X66; read-out: MIC) of 32 µg/mL (≈ 83.5 µM), an MIC (Escherichia coli EC14; read-out: MIC) of 0.5 µg/mL (≈ 1.3 µM) and an MIC (Escherichia coli N10; read-out: MIC) of 2 µg/mL (≈ 5.22 µM). The MIC (Escherichia coli TEM; read-out: MIC) was 0.5 µg/mL (≈ 1.3 µM), the MIC [5] was 1 µg/mL (≈ 2.61 µM) and the MIC [6] was 0.5 µg/mL (≈ 1.3 µM). It also gave an MIC ([7]; read-out: MIC) of 8 µg/mL (≈ 20.9 µM), an MIC ([8]; read-out: MIC) of 0.25 µg/mL (≈ 0.652 µM) and an MIC ([9]; read-out: MIC) of 0.5 µg/mL (≈ 1.3 µM). For the same compound, the MIC (Morg morg PR15; read-out: MIC) was 32 µg/mL (≈ 83.5 µM), the MIC (Proteus incon PR33; read-out: MIC) was 16 µg/mL (≈ 41.7 µM) and the MIC (Proteus rett C24; Proteus rett C24, read-out: MIC) was 8 µg/mL (≈ 20.9 µM). The MIC (Salmonella 1335; read-out: MIC) was 1 µg/mL (≈ 2.61 µM), the MIC (Salmonella X514; read-out: MIC) was 0.25 µg/mL (≈ 0.652 µM) and the MIC (Serratia SE3; read-out: MIC) was 32 µg/mL (≈ 83.5 µM). The MIC (Serratia X99; read-out: MIC) was 8 µg/mL (≈ 20.9 µM), the MIC (Shig sonn. N9; read-out: MIC) was 1 µg/mL (≈ 2.61 µM) and the MIC ([10]; NRRLX1.1, read-out: MIC) was 2 µg/mL (≈ 5.22 µM). The MIC [11] was 32 µg/mL (≈ 83.5 µM), the MIC ([12]; read-out: MIC) was 16 µg/mL (≈ 41.7 µM) and the MIC ([13]; read-out: MIC) was 64 µg/mL (≈ 167 µM). For the same compound, the MIC ([14]; read-out: MIC) was 4 µg/mL (≈ 10.4 µM), the MIC ([15]; read-out: MIC) was 4 µg/mL (≈ 10.4 µM) and the MIC ([16]; PARK1, read-out: MIC) was 0.125 µg/mL (≈ 0.326 µM). It also gave an MIC [17] of 0.06 µg/mL (≈ 0.157 µM).
